# Measurements from US8778302B2, “Procaspase 8-mediated disease targeting” (The University of British Columbia, priority 2007, dated 2014).
# B1: SPARC: Secreted Protein, Acidic, Rich in Cysteines, a 281 amino acid glycoprotein (protein)
# chain: APQQEALPDETEVVEETVAEVTEVSVGANPVQVEVGEFDDGAEETEEEVVAENPCQNHHCKHGKVCELDENNTPMCVCQDPTSCPAPIGEFEKVCSNDNKTFDSSCHFFATKCTLEGTKKGHKLHLDYIGPCKYIPPCLDSELTEFPLRMRDWLKNVLVTLYERDEDNNLLTEKQKLRVKKIHENEKRLEAGDHPVELLARDFEKNYNMYIFPVHWQFGQLDQHPIDGYLSHTELAPLRAPLIPMEHCTTRFFETCDLDNDKYIALDEWAGCFGIKQKDIDKDLVI
# modifications: left off: small tags and cut ends
# notes: Secreted Protein, Acidic, Rich in Cysteines, a 281 amino acid glycoprotein
# Experiments:
# MIP/SP cells [1] = assay: caspase 8/9 inhibition, cell viability by MTS, MIP/SP; format: cell-based, human
# Experimental: (§1) caspase 8/9 Inhibition: Cells were seeded (96-well plates), and incubated 24 hours later (˜60% confluence) with 10-50 μM of Caspase 8-like inhibitor (z-IETD-fmk, Sigma) or Caspase 9-like inhibitor (z-LEHDfink•TFA, Sigma) for 30 minutes, followed by incubation with 1000 μM 5-FU for an additional 24 hours. Cell viability was assessed by MTS assay.
# MIP/ZEO cells [2] = assay: caspase 8/9 inhibition, cell viability by MTS, MIP/ZEO; format: cell-based, human
# Experimental: as §1
# MIP/SP cells [3] = assay: Cell viability (MTS) assay after Caspase 8 siRNA, MIP/SP; format: cell-based, human; conditions: Caspase 8 gene silencing, after 5-FU treatment (0-1200 μM) (FIG. 3A)
# MIP/ZEO cells [4] = assay: Cell viability (MTS) assay after Caspase 8 siRNA, MIP/ZEO; format: cell-based, human; conditions: Caspase 8 knock-down
# Experimental: (§2) Cell Lines: MIP101 and HCT116 (ATCC) human CRC cells were maintained in DMEM media supplemented with 1% penicillin-streptomycin, 1% kanamycin (Invitrogen) and 10% newborn calf serum at 37° C. and 5% CO2. […] MIP101 transfected with empty vector (VIIP/ZEO) and MIP101 cells stably transfected with SPARC (MIP/SP), were also supplemented with 0.01% zeocin (Invitrogen).
# (§3) Cell viability was assessed by MTS assay (Promega) at 490 nm. Caspase 3/7 Assay: Cells were transiently transfected with 40 nM of Caspase 8 siRNA for 48 hours, and incubated with 1000 μM 5-FU for another 48 hours. Total cell lysates were isolated and 20 μg of total protein/sample were used in Caspase-Glo 3/7 Assay (Promega), using a 1:1 dilution of Caspase-Glo 3/7 Substrate. Relative luminescence units (RLU) was quantified using a Viktor2 1420 Multilabel counter (Perkin Elmer).
# HCT116 cells = assay: Cell viability (MTS) assay after Caspase 8 siRNA, HCT116; format: cell-based, human; conditions: HCT116, Caspase 8 siRNA+5-FU
# Experimental: as §2, §3
# MIP/5FU cells [5] = assay: Cell viability (MTS) assay after Caspase 8 siRNA, MIP/5FU; format: cell-based, human; conditions: with Caspase 8 knock-down (FIG. 3B)
# Experimental: as §2, §3
# [6] = tested on: Caspase 3/7 activity in MIP/SP cells; assay: Caspase 3/7 assay (Caspase-Glo), MIP/SP; format: cell-based, human
# Experimental: (§4) Cell viability was assessed by MTS assay (Promega) at 490 nm. […] Total cell lysates were isolated and 20 μg of total protein/sample were used in Caspase-Glo 3/7 Assay (Promega), using a 1:1 dilution of Caspase-Glo 3/7 Substrate. Relative luminescence units (RLU) was quantified using a Viktor2 1420 Multilabel counter (Perkin Elmer).
# [7] = tested on: Caspase 3/7 activity in MIP/ZEO cells; assay: Caspase 3/7 assay (Caspase-Glo), MIP/ZEO; format: cell-based, human
# Experimental: as §4
# [8] = tested on: Caspase 3 activation in MIP/5FU cells; assay: Caspase 3/7 assay (Caspase-Glo), MIP/5FU; format: cell-based, human; conditions: Caspase 8 siRNA or scramble control (FIG. 4A)
# Experimental: as §3
# MIP/SP cells [9] = assay: TUNEL assay, MIP/SP; format: cell-based, human
# Experimental: (§5) TUNEL Assay: Cells were seeded (24-well plates) to achieve ˜60% confluence 24 hours later for transient transfection with Caspase 8 siRNA. 36 hours later, cells were incubated with 1000 μM 5-FU for 36 hours, harvested (suspension and attached cells) and fixed onto glass slides with Shandon cytospin at 2000 rpm for 10 minutes and stained as per manufacturer's instructions (Promega). The number of TUNEL-positive cells was counted and averaged from four different fields (n=4 independent experiments, with slides read independently by two individuals in a blinded fashion).
# MIP/ZEO cells [10] = assay: TUNEL assay, MIP/ZEO; format: cell-based, human; conditions: 5-FU
# Experimental: as §5
# MIP/5FU cells [11] = assay: TUNEL assay, MIP/5FU; format: cell-based, human; conditions: 5-FU treatment (FIG. 4B, C)
# Experimental: as §5
# [12] = tested on: Caspase 8 in MIP/SP tumors; assay: Caspase 8 protein activity in MIP/SP tumor xenografts; format: in vivo, nude mice; conditions: MIP/SP tumors from animals treated with 5-FU (FIG. 6C)
# Experimental: In addition, tumor xenografts of MIP/ZEO and MIP/SP cells from nude mice treated with either 5-FU (three consecutive days) or saline, were collected after the 1st cycle of treatment and homogenized (Kinematica, POLYTRON-Aggregate). Lysates were then prepared for immunoblot or RT-PCR. […] Similarly, cells seeded on coverslips at 150,000 cells/well in a E-well plate, treated 24 hours later with 1000 μM 5-FU for 2 hours were then fixed in 2% paraformaldehyde and processed for immunofluorescence staining as previously described [27]. In both cases, α-caspase 8 (1:50, paraffin-embedded tissues; 1:100, cells on coverslips) antibody was used and incubated overnight at 4° C., and counterstained with DAPI. Zeiss Axioplan 2 Fluorescence microscope was used for image capture.
# [13] = in vitro cytotoxicity of ABX and Taxol; format: cell-based; conditions: Homo sapiens, A-431; A431 line
# Procaspase 8 = target: T1, Procaspase 8 (Homo sapiens, UniProt Q14790); assay: immunoprecipitation of Procaspase 8 with truncated SPARC polypeptides; format: binding; conditions: truncated SPARC polypeptide near amino terminus (MIP/NT), FIG. 8
# T1 construct: endogenous in cells; host or cells: MIP101-derived cells expressing SPARC fragments (MIP/NT, MIP/FS, MIP/EC)
# T1 sequence (Q14790 whole entry, the tested form may be a part): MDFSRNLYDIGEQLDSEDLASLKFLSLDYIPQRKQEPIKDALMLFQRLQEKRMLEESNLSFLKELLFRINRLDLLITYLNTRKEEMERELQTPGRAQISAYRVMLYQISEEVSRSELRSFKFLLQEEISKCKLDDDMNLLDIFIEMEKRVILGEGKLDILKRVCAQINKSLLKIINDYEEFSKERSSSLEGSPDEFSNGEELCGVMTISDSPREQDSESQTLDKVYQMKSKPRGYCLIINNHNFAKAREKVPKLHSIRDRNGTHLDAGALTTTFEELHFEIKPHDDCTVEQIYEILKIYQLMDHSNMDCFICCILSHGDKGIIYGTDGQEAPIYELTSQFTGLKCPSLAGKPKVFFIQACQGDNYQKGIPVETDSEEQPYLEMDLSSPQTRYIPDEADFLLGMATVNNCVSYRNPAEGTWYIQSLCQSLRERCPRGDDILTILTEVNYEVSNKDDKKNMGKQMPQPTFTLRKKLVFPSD
# Experimental: Immunopreciptation was performed with anti-histidine tag antibody (IP: His) (See FIG. 8A) or an anti-Caspase 8 antibody (IP: Capsaase 8) (See FIG. 8B) in the presence of Procaspase 8 and truncated SPARC polypeptides comprising a sequence near the SPARC amino terminus (SEQ ID NO: 20) (MIP/NT), a sequence from the SPARC follistatin-like domain (SEQ ID NO: 22) (MIP/FS), a sequence from the SPARC extracellular domain (SEQ ID NO: 24) (MIP/EC) or a control antibody (IgG).
# [14] = tested on: Caspase 8 expression in MIP 101 tumor xenografts; assay: Caspase 8 expression in MIP 101 mouse tumor xenografts; format: in vivo, NIH nude mice; conditions: mice administered SPARC as single agent (FIG. 6D)
# Experimental: Animal Studies: Tumors harvested from xenografts from animals (NIH nude mice, 6 weeks old, Taconic Laboratories) were used for histology, RT-PCR or immunoblot. 2×10^6 MIP101 cells were injected into the left flank.
# Experimental groups (2 animals/group) for this study included treatment with: SPARC, SPARC+5-FU, 5-FU only, and saline. In addition, tumor xenografts of MIP/ZEO and MIP/SP cells from nude mice treated with either 5-FU (three consecutive days) or saline, were collected after the 1st cycle of treatment and homogenized (Kinematica, POLYTRON-Aggregate). Lysates were then prepared for immunoblot or RT-PCR. All animals received care according to standard animal care protocol and guidelines. […] Similarly, cells seeded on coverslips at 150,000 cells/well in a E-well plate, treated 24 hours later with 1000 μM 5-FU for 2 hours were then fixed in 2% paraformaldehyde and processed for immunofluorescence staining as previously described. In both cases, α-caspase 8 (1:50, paraffin-embedded tissues; 1:100, cells on coverslips) antibody was used and incubated overnight at 4° C., and counterstained with DAPI. Zeiss Axioplan 2 Fluorescence microscope was used for image capture.
# [15] = target: T2, interaction between Bcl-2 and Procaspase 8 (Homo sapiens, UniProt Q14790); assay: co-immunoprecipitation of Bcl-2 and Procaspase 8 with exogenous SPARC; format: binding; conditions: addition of exogenous SPARC, 10 μg/ml for 72-hrs; resistant cell lines (FIG. 9C)
# T2 construct: lysates were separated into nuclear, cytosolic, and membrane fractions; endogenous in cells; host or cells: MIP/5FU (MIP101 resistant to 5-FU) and MiaPaca/CPT cells
# T2 sequence (Q14790 whole entry): as the sequence (Q14790 whole entry, the tested form may be a part) above
# Experimental: Cells were grown until ˜80% confluence, and lysates were separated into nuclear, cytosolic, and membrane fractions. 250 μg of individual cellular fractions were incubated with antibodies against HIS (1:100, Sigma), capsase 8 (N-terminus) (1:100, Abcam), Bcl-2 (1:100, Cell Signaling Technologies) or a non-specific anti-mouse IgG antibody as control (Cell Signaling Technologies), in PBS overnight (4° C.). Protein:Antibody mixture was then incubated with […] of Protein A:Protein G (Sigma) (1:1) beads for 4 hours (4° C.). For all complexes, beads were washed with PBS, and eluted with 2×SDS-loading buffer, and used for immunoblotting against caspase 8, HIS, or Bcl-2.
# In order to determine the region of interaction between Bcl-2 and Procaspase 8, cells were also incubated with antibodies against caspase 8 targeting its C-terminus (Cell Signaling) or N-terminus (Abeam) in vitro for 24 hours at 1.5-3.0 μg prior to collecting and fractionating the cell lysates for immunoprecipitation. In addition, to assess if exogenous SPARC interferes with the interaction of procaspase 8 and Bcl-2, cells were incubated with 10 μg/ml of SPARC for 72-hrs, in the presence or absence of antibodies against SPARC (3 μg, Hematologic Technologies) for 24 hrs, prior to collection for cellular fractionation and immunoprecipitation.
# [16] = Homo sapiens, 1000 μM 5-FU for 24 hours only, read-out: decrease in cell viability
molecule,measurement,setting,value
z-LEHD-fmk•TFA,effect of Caspase 9-like inhibitor on 5-FU-induced decrease in cell viability,MIP/SP cells [1]; inhibitor then 5-FU,preventing a significant decrease in cell viability
same,effect of Caspase 9-like inhibitor on 5-FU-induced decrease in cell viability,MIP/ZEO cells [2]; inhibitor then 5-FU,preventing a significant decrease in cell viability
"O=c1[nH]cc(F)c(=O)[nH]1 [5-FU, 5-fluorouracil]",cell viability (viable cells),MIP/SP cells [3],97.6±1.4%
same,cell viability,MIP/ZEO cells [4]; following 5-FU treatment (FIG. 3B),75.5±0.5%
same,viability at 1200 µM,"MIP/ZEO cells [4]; Homo sapiens, 5-FU 1200 μM (FIG. 3A)",52.1 ± 1.7%
same,viable cells,HCT116 cells,88.2±2.3%
same,effect of 5-FU on cell viability,MIP/5FU cells [5],remained unaffected
same,cytotoxicity at 1000 µM,MIP/SP cells [1]; [16],16.8 ± 4.5%
same,decrease in cell viability,MIP/ZEO cells [2]; 5-FU-treated after pre-incubation with Caspase 8-like inhibitor,14.0±4.6%
same,cytotoxicity at 1000 µM,MIP/ZEO cells [2]; [16],21 ± 5.9%
same,Caspase 3/7 activity,"[6]; MIP/SP cells, 12 hours after incubation with 5-FU",16397.0±2787.6 RLU
same,Caspase 3/7 activity,"[6]; MIP/SP transfected with Caspase 8 siRNA, 5-FU treated",291.0±34.7 RLU
same,Caspase 3/7 activity,"[6]; control MIP/SP cells, 5-FU treated",5501.0±800.0 RLU
same,Caspase 3/7 activity,"[7]; MIP/ZEO cells, 12 hours after incubation with 5-FU",9954.0±1104.8 RLU
same,Caspase 3/7 activity,"[7]; MIP/ZEO, 5-FU, scramble control",1915.0±661.3 RLU
same,Caspase 3/7 activity,"[7]; MIP/ZEO, 5-FU, transfected with Caspase 8 siRNA",2321.3±661.3 RLU
same,Caspase 3 activation,[8],No Caspase 3 activation was observed
same,apoptotic cells (TUNEL),"MIP/SP cells [9]; MIP/SP exposed to 5-FU, no Caspase 8 inhibition",20.7±6.9%
same,apoptotic cells (TUNEL),"MIP/SP cells [9]; MIP/SP, 5-FU following Caspase 8 gene knock-down",0.5±0.5%
same,apoptotic cells (TUNEL),MIP/ZEO cells [10]; no transfection with Caspase 8 siRNA,12.2±0.7%
same,apoptotic cells (TUNEL),MIP/ZEO cells [10]; transfection with Caspase 8 siRNA,12.5±2.4%
same,apoptosis response (TUNEL),MIP/5FU cells [11],did not respond to 5-FU treatment significantly
same,Caspase 8 protein activity in tumors,[12],highest
"CC(=O)O[C@H]1C(=O)[C@@]2(C)[C@H]([C@H](OC(=O)c3ccccc3)[C@]3(O)C[C@H](OC(=O)[C@H](O)[C@@H](NC(=O)c4ccccc4)c4ccccc4)C(C)=C1C3(C)C)[C@]1(OC(C)=O)CO[C@@H]1C[C@@H]2O [TAX, Taxol]",IC50,[13],0.012 µg/mL
SEQ ID NO: 20: truncated SPARC polypeptide comprising a sequence near the SPARC amino terminus (APQQEALPDETEVVEETVAEVTEVSVGANPVQVEVGEFDDGAEETEEEVVA; SPARC Polypeptide Expressed in MIP/NT cells),interaction with Procaspase 8 (co-immunoprecipitation),Procaspase 8,involves a SPARC domain which is within the amino acid sequence of SEQ ID NO: 20
z-IETD-fmk,effect of Caspase 8-like inhibitor on 5-FU-induced decrease in cell viability,"MIP/SP cells [1]; pre-incubation with inhibitor (as low as 10 μM), then 1000 μM 5-FU",prevented a significant decrease in cell viability
same,effect of Caspase 8-like inhibitor on 5-FU-induced decrease in cell viability,"MIP/ZEO cells [2]; inhibitor 50 μM, then 5-FU",no such effect could be demonstrated
B1,Caspase 8 expression in tumor xenografts,[14],higher levels of Caspase 8
same,blocking of interaction between Bcl-2 and Procaspase 8,[15],can be blocked
